According to patent US20250012799A1, “SARS-COV-2 POLYPEPTIDES AND USES THEREOF” (IAMA FRANCE, priority 2021, published 2025):
Like-named read-outs stand apart in the source and are kept apart here.

How the values were obtained:
[1] = system: NKp44L membrane expression on Calu-3 cells; type: cell-based, human; settings: for Induction of NKp44L membrane expression: Calu-3, individual peptides/pools of sub-pools no 8.2 and no 8.3; for induction of the expression of NKp44L (in words): Calu-3 lung cell line
[2] = system: NKp44L membrane expression on A549: hu ACE-2 cells; type: cell-based, human; settings: for Induction of NKp44L membrane expression: A549, individual peptides/pools of sub-pools no 8.2 and no 8.3; for induction of the expression of NKp44L (in words): A549: hu ACE-2 lung cell line

Substance | Induction of NKp44L membrane expression ([1]; Experiment no 1) | Induction of NKp44L membrane expression ([1]; Experiment no 2) | Induction of NKp44L membrane expression ([1]; Experiment no 3) | Induction of NKp44L membrane expression ([2]; Experiment no 1) | Induction of NKp44L membrane expression ([2]; Experiment no 2) | Induction of NKp44L membrane expression ([2]; Experiment no 3) | induction of the expression of NKp44L (in words) [1] | induction of the expression of NKp44L (in words) [2]
igvtqnvlyenqklianq [Spi228] | 91 | 103 | 117 | 75 | 82 | 89 |  | 
klianqfnsaigkiqdsl [Spi231] | 2250 | 2406 | 2207 | 1308 | 1232 | 1199 | induce the expression of NKp44L | induce the expression of NKp44L
nqfnsaigkiqdslssta [Spi232] | 421 | 301 | 412 | 101 | 127 | 148 |  | 
qmayrfngigvtqnvlye [Spi226] | 103 | 112 | 119 | 53 | 59 | 71 |  | 
qnvlyenqkliangfnsa [Spi229] | 2103 | 1889 | 1875 | 1167 | 1021 | 993 | induce the expression of NKp44L | induce the expression of NKp44L
rfngigvtqnvlyengkl [Spi227] | 2507 | 2726 | 2592 | 1402 | 1517 | 1538 | induce the expression of NKp44L | induce the expression of NKp44L
yenqklianqfnsaigki [Spi230] | 2213 | 2403 | 2173 | 1202 | 1198 | 1195 | induce the expression of NKp44L | induce the expression of NKp44L
